“Also recorded” adds a separate entry of the source.
Key:
[1] = toxicity to animals: Lethal Dose-50 given ip to ICR mice; settings: mouse, in vivo, ICR mice 20 g, one injection, average of three separate trials, Table 3
Experimental: (§1) The above mentioned thiosemicarbazone compounds were finally powdered and suspended in dimethylsulfoxid (DMSO)-(Merck) to get stock solutions of 10 mg/ml. Stock solutions were diluted to a final volume of 0.25 ml DMSO to obtain the following concentrations: 2,5 mg, 2 mg; […], 1 mg, in 0.25 ml final volume.
(§2) Each drug concentration of the 4 thiosemicarbazone derivatives was injected in a sterile manner intraperitonally (iP) to a group of 10 ICR mice, each weighing 20 g. After one injection the mice were followed for the highest non-lethal dose, and for the lethal dose. The results are an average of three separate trials.

[2] = toxicity to animals: highest non-lethal dose given ip to ICR mice; settings: mouse, in vivo
Experimental: as §1, §2

[3] = tested on: Abelson-Moloney murine leukemia virus (Ab-MoMuLV) induced B-lymphoma; assay: antiviral effect in mice against B-lymphoma induced by Ab-MoMuLV; type: in vivo; settings: daily dose of 2 μg/4 g weight for 10 consecutive days, immediately after infection, versus untreated mice
Experimental: One of the three compounds, namely M-IBDET was examined as to its efficacy against the Abelson-Moloney murine leukemia virus (Ab-MoMuLV). Injection of susceptible mice with B-cell lymphocytes infected with Ab-MoMuLV usually results in induction of B-type lymphoma within 3 weeks. Treatment of mice immediately after infection with MoMuLV infected cells with M-IBDET at a daily dose of 2 μg/4 g weight for 10 consecutive days caused a delay of 3 weeks in the appearance of the lymphoma in the drug-treated mice as compared with untreated mice.

[4] = tested on: Moloney leukemia virus; settings: literature refs (1-3); cited from earlier work
[5] = tested on: viruses listed in Table I; type: cell-based, Mouse, Avian, Human cells; settings: 34 μM, 18 hrs (such conditions of treatment)
[6] = tested on: human immunodeficiency virus--HIV; assay: inhibition of HIV production in chronically infected H9 and HuT-78 cell lines; type: cell-based, human cell lines; settings: evaluated in a similar manner (2 hrs, then 1:10 dilution, 24 hrs)
Experimental: The thiosemicarbazone compounds were examined for their inhibitory effect on the human immunodeficiency virus--HIV in the following chronically infected cell lines:
H9 cell line--A human established T-cell line chronically infected with HIV;
HuT-78 cell line--A human cell line chronically infected with ARV2 (HIV).
concentrations of 5×10^6 cells per ml were incubated with 17-34 μM of the different thiosemicarbazones. Virus production was assayed in the drug-treated and untreated cells after 7 hrs of exposure. An 85% inhibition of virus production was found in the drug-treated cultures as compared to control untreated cultures. Virus production was determined by assaying various virus parameters such as reverse transcriptase activity, plaque forming units (PFU) and viral structtural protein content.
The compounds were also tested by employing a different way of treatment of the HIV infected cultures: 5×10^6 infected cells were incubated with 17-34 μM of the drug for 2 hrs. Subsequently a dilution of 1:10 of the medium was performed to final concentration of 1.7-3.4 μM of the drug. The cultures were further incubated for 24 hrs in diluted medium and virus production was assayed. The extent of inhibition of HIV production achieved by the described treatment was 75-85%. M-IBT was evaluated in a similar manner.

[7] = tested on: pox-virus family (smallpox); settings: oral, 40 mg/kg for 4 consecutive days; cited from earlier work
[8] = tested on: EIAV; assay: inhibition of EIAV production in chronically infected fibroblast cells; type: cell-based; settings: 2 hrs then 1:10 dilution, further 24 hours
Experimental: Fibroblast cells of […] chronically infected with EIAV were incubated for 2 hrs with concentrations ranging from 17 μM to 34 μM of the described thiosemicarbazone compounds. Subsequently the medium was diluted 1:10 to obtain a final concentration of ranging from 1.7 to 3.4 μM. The cultures were further incubated for 24 hours and virus production was assayed in drug-treated and untreated cells. The extent of inhibition of virus production in the treated cultures was 70-80%. M-IBT was tested and found to be ineffective.

[9] = tested on: viruses belonging to the Retroviridae family; assay: inhibition of virus production of Retroviridae in infected cells (summary); type: cell-based; settings: tested by applicant
Experimental: The thiosemicarbazone compounds described in this invention, were found by us to be specific inhibitors of viruses belonging to the Retroviridae family. Results obtained in our laboratory indicate that amounts ranging from 17 μM to 34 μM of the thiosemicarbazones suppressed specifically the production of viruses belonging to the Retroviridae family. The extent of inhibition of virus production in the infected cells was 75-85%. This inhibition was confirmed by various parameters of virus assay such as: reverse transcriptase activity, virus infectivity and contents of viral structural proteins.

[10] = ICR mice 20 g, one injection, average of three separate trials, Table 2

Row | Compound | LD50 [1] [mg/kg] | MTD [2, 10] [mg/kg] | delay in the appearance of the lymphoma [3] [weeks] | inhibition of production of Moloney leukemia virus [4] | effectiveness on virus infectivity [5] | inhibition of HIV production [6] | clinical effectiveness against pox virus / smallpox [7] | MTD ([2]; ICR mice 20 g-weight) [mg/kg] | effectiveness against EIAV [8] | effectiveness against viruses of the Retroviridae [9]
1 | C=CCN1C(=O)C(=NNC(=S)N(C)C)c2ccccc21 [A-IBDMT, 1-allylisatin-β-4':4'-dimethylthiosemicarbazone] | 175 | 100 | – | – | – | – | – | – | – | –
2 | CCN(CC)C(=S)NN=C1C(=O)N(C)c2ccccc21 [M-IBDET, 1-methylisatin-β-4':4'-diethylthiosemicarbazone] | 125 | 50 | 3 | inhibits the production of Moloney leukemia virus | – | – | – | – | – | –
3 | C=CCN1C(=O)C(=NNC(=S)N(CC)CC)c2ccccc21 [A-IBDET, 1-allylisatin-β-4':4'-diethylthiosemicarbazone] | 175 | 100 | – | – | – | – | – | – | – | –
4 | CN1C(=O)C(=NNC(N)=S)c2ccccc21 [M-IBT, N-methylisatine 3-thiosemicarbazone] | 125 | – | – | – | not effective | No inhibition could be detected | effective in the treatment of humans against smallpox; also recorded: effective against subjects known to have contact with smallpox; also recorded: effective results; also recorded: clinically effective | 50 | ineffective | ineffective
